Data set [1] relates to NMRI mice. The data set is described as follows: Formalin paw test. The format is in vivo. The settings on record: 100 mg/kg p.o., 120 minutes before the test; FIG. 6. On the procedure: The method, which detects analgesic/anti-inflammatory activity, follows that described by Wheeler-Aceto et al (Wheeler-Aceto et al., 1991). NMRI mice were given an intraplantar injection of 5% formalin (25 μl) into the posterior left paw. […] The time spent licking was counted for 15 minutes, beginning 15 minutes after injection of formalin. 10 mice were studied per group. The test was performed blind. S-Licarbazepine and R-licarbazepine were tested at the dose of 100 mg/kg p.o., administered 120 minutes before the test (i.e. […]), and compared with a vehicle control group in each experiment.

A further data set has as its system P-gp or MRP. As to conditions: cited from earlier work; for category of P-gp or MRP substrates: AEDs listed in the discussion.
Data set [2] has as its system patients with drug-resistant epilepsy. As to conditions: six months after initiation of therapy; 120 patients who had tried at least 3-4 other AEDs; cited from earlier work.
The test system of data set [3] is NMRI mice. The data set is described as follows: Corneal kindling procedure (acquisition of kindling). It counts as in vivo. Here is the method: Vehicle (30% DMSO in distilled water) or the compounds dissolved in 30% DMSO were administered intraperitoneally twice daily. NMRI mice were stimulated twice daily (interstimulation interval 6-7 h) on twelve consecutive days. The electrostimulations with current intensities of 3 mA and duration of 3 s (pulse frequency 50 Hz) were applied via corneally placed saline-soaked copper electrodes. A stimulator was used to deliver a constant current regardless of the impedance of the test object. Seizure severity was ranked according to a modified system of Racine (Racine, 1972): 1, mild facial clonus and eye blinking; 2, severe facial clonus, head nodding, chewing; 3, unilateral or alternating forelimb clonus; 4, bilateral forelimb clonus with rearing […]; 5, bilateral forelimb clonus with rearing and falling; 6, tonic fore- and/or hindlimb extension.

Data set [4] in a line: Brain pharmacokinetics (brain access) after oral administration to CD-1 mice. The format is in vivo. As to conditions: for presence of the opposite enantiomer in brain: analyte found after administration of the other enantiomer. The source says:
(§1) The following pharmacokinetic parameters for S-licarbazepine and R-licarbazepine were derived by non-compartmental analysis from the concentration versus time profiles: maximum observed plasma drug concentration (Cmax), time at which the Cmax occurred (tmax), area under the plasma concentration versus time curve (AUC) from time zero to the last sampling time at which concentrations were at or above the limit of quantification (AUC0-t) and AUC from time zero to infinity (AUC0-∞), elimination half-life (t1/2) and mean residence time (MRT). The pharmacokinetic parameters were determined using WinNonlin (version 4.0). Summary statistics of all data for each treatment and scheduled sampling times were reported, as appropriate, using the geometric mean, arithmetic mean, standard deviation (SD), coefficient of variation (CV), median, minimum and maximum. The statistical package SAS Version 8.2 or higher (SAS Institute, Cary, USA) was used in all computations when considered appropriate.

In a further data set the target is P-glycoprotein (P-gp) (Mus musculus, UniProt P21447). The data set is described as follows: Brain/plasma ratio in mice pre-treated with the P-gp inhibitor verapamil. As to conditions: for substrate for P-gp: concluded from verapamil pre-treatment; for effect of verapamil on brain/plasma ratio: verapamil 20 mg/kg 30 min before 100 mg/kg intraperitoneally, FIG. 2.
Data set [5] relates to Multiple Resistant Proteins (MRP). The data set is described as follows: Brain/plasma ratio in mice pre-treated with the MRP inhibitor probenecid. As to conditions: for substrate for MRP: concluded from probenecid pre-treatment.
Description: (§2) CD-1 mice weighing 30-35 g were maintained under controlled environmental conditions (23-24° C.) for at least 5 days before the experiment. […] In the second series of experiments, mice pre-treated with vehicle, verapamil (20 mg/kg) or probenecid (100 mg/kg) were given 30 min later intraperitoneally S-licarbazepine or R-licarbazepine (100 mg/kg). […] After collection of blood, plasma was obtained by centrifugation. Brain samples were homogenised in phosphate buffer (pH 5; 4 mL/g) followed by centrifugation and collection of the supernatant. Plasma and the tissue supernatant were stored frozen until analysis. The assay of S-licarbazepine and R-licarbazepine was performed using a HPLC-UV or LC-MS method following solid phase extraction.
Data set [6] is described as follows: Plasma pharmacokinetics after oral administration to CD-1 mice. The format is in vivo.
Description: as §1

In data set [7] the test system is partial epilepsy refractory patients. As to conditions: cited from earlier work.
Setting [8] is: 100 mg/kg twice daily, twelve days.
[9] abbreviates: brain, after 350 mg/kg R-licarbazepine oral, CD-1 mice.
The mark [10] stands for this setting: plasma, after 350 mg/kg R-licarbazepine oral, CD-1 mice.
The mark [11] stands for this setting: eslicarbazepine acetate 100 mg/kg, i.p., FIG. 3.

SMILES strings stand for the structures. Entries after “also recorded” stand apart in the source; their conditions may differ.

P-glycoprotein (P-gp), sequence (P21447 whole entry): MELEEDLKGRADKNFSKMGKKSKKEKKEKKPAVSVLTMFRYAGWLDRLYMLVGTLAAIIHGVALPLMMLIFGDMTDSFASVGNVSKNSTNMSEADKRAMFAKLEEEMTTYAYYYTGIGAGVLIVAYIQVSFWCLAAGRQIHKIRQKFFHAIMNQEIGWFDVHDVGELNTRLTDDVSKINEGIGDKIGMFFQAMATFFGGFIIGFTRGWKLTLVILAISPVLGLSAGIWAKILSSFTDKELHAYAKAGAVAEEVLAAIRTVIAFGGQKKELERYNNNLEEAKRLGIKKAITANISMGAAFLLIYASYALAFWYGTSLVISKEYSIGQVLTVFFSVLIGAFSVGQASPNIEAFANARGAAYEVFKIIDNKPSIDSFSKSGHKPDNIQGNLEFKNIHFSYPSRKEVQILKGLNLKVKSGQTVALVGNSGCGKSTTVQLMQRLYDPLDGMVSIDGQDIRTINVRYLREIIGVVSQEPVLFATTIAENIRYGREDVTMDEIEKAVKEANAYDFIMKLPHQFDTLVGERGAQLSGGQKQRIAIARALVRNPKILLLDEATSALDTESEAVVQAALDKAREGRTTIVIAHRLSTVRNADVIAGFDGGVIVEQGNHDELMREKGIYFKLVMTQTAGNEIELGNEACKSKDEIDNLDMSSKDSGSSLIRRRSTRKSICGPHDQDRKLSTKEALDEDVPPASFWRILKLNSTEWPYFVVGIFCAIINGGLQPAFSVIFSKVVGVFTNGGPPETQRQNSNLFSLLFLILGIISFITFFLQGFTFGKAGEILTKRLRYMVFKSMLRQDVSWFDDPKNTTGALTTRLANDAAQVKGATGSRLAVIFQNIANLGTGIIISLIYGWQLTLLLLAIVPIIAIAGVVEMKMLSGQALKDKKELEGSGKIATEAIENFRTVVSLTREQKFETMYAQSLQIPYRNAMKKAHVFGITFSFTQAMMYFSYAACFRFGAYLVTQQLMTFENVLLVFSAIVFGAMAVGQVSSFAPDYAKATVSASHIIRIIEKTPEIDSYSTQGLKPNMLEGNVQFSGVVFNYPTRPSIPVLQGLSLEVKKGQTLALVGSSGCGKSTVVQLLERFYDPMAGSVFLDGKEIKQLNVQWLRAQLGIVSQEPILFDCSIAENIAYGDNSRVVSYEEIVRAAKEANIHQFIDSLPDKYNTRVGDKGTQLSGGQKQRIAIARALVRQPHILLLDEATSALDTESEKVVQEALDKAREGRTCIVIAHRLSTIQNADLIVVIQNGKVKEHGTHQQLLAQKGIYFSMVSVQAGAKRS
Description for P-glycoprotein (P-gp): as §2

`NCC1(CC(=O)O)CCCCC1` [Gabapentin]: in the data set with NMRI mice [1], the “licking time versus vehicle controls” value was “significantly (p<0.05) decreased”.
In the case of `CC[C@@H](C(N)=O)N1CCCC1=O` [Levetiracetam], in the data set with P-gp or MRP (verapamil and probenecid did not increase brain penetration), the “substrate for either P-gp or MRP1/2” value is reported as “not to be a substrate”. Further, the patients seizure-free in [2] was 32%.
As usually defined, the Cmax is the peak of the concentration-time curve. Usually MRT stands for the average time that molecules of a dose stay in the body. As a reminder, the t½ is the time needed for the level to fall by half in the phase considered. High values mean slow decline, low ones rapid decline. With `NC(=O)N1c2ccccc2C[C@@H](O)c2ccccc21` [R-licarbazepine], the “effect on acquisition of kindling” value in the data set with NMRI mice [3] (100 mg/kg twice daily intraperitoneally, twelve days) is listed as “no inhibitory effect”. In addition, the “adverse effects during the course of the experiment” value with NMRI mice [3] (setting [8]) is listed as “no adverse effects were obvious”. Further, the “mean seizure severity versus vehicle control group” value with NMRI mice [3] (100 mg/kg twice daily, S-lic: all sessions of first three days, R-lic: all sessions except afternoon of day 8) is recorded as “no significant differences”. In the data set with NMRI mice [3] (100 mg/kg twice daily, score 3 and 4 (S-lic), score 3, 4, 5 and 6 (R-lic), versus control), the “number of stimulations necessary to induce a seizure with a given severity score” value was “did not differ”. Besides, in the data set with NMRI mice [3] (at termination of treatment, day 12), the “animals that had reached the kindling criterion (at least one generalized seizure, score 4-6)” value is on record as “all of the treated animals”. In addition, in data set [4], the “presence of the opposite enantiomer in brain” value is recorded as “almost negligible”. Moreover, in [4] (setting [9]), the “AUC0-∞” value was 60.037 µg·h/mL, the AUC(0-t) stood at 51.516 µg·h/mL, the Cmax is recorded as 8533 ng/mL and the MRT is on record as 11.34 h. In data set [4] (setting [9]), this compound returned a tmax of 0.75 h and a t½ of 7.91 h. On P-glycoprotein (P-gp), the “substrate for P-gp” value is given as “is a substrate” and the “effect of verapamil on brain/plasma ratio” value is “markedly increased; also recorded: equals that of S-licarbazepine in vehicle-treated animals”. Further, in data set [5], the “substrate for MRP” value is “not for MRP”. For the same compound, in the data set with NMRI mice [1], the “licking time versus vehicle controls” value is reported as “did not attain statistical significance”. Moreover, the “absorption after oral administration” value in data set [6] (oral, CD-1 mice) is reported as “rapidly absorbed”. In [6] (setting [10]), the “AUC0-∞” value was determined as 231.716 µg·h/mL, the AUC(0-t) was 203.705 µg·h/mL, the Cmax turned out to be 69946 ng/mL and the MRT is on record as 10.12 h. Also, in data set [6] (setting [10]), the tmax is reported as 0.25 h and the t½ is recorded as 8.11 h. Also, the “elimination half-life (t1/2)” value in data set [6] (plasma, approximate value stated for both enantiomers) is listed as “≈ 8 h”.
The AUC(0-inf) is the area under the concentration-time curve extrapolated to infinity. Higher therefore signals high exposure. With `NC(=O)N1c2ccccc2C[C@H](O)c2ccccc21` [S-licarbazepine, (S)-(+)-10,11-dihydro-10-hydroxy-5H dibenz/b,f/azepine-5-carboxamide], the “adverse effects during the course of the experiment” value in the data set with NMRI mice [3] (setting [8]) is “no adverse effects were obvious”. Also, in data set [4] (FIG. 1, compared with R-licarbazepine), the “brain/plasma ratio (considering either Cmax or AUC)” value is “considerably greater”. In addition, the “presence of the opposite enantiomer in brain” value in [4] is “almost negligible”. Besides, the “AUCbrain(S-Licarbazepine)/AUCbrain(R-Licarbazepine)” value in data set [4] (brain exposure ratio, each enantiomer given orally 350 mg/kg) worked out at 1.9. Further, the AUC(0-inf) worked out at 111 µg·h/mL in data set [4] (mouse, brain, after 350 mg/kg S-licarbazepine oral, CD-1 mice) and 258 µg·h/mL in [6] (mouse, plasma, after 350 mg/kg S-licarbazepine oral, CD-1 mice). Also, the AUC(0-t) in data set [4] (mouse, brain, after 350 mg/kg S-licarbazepine oral, CD-1 mice, read-out: AUC0-t) came out at 109 µg·h/mL; in data set [6] (CD-1, mouse, plasma, po, 350 mg/kg, plasma, after 350 mg/kg R-licarbazepine oral, CD-1 mice, read-out: AUC0-t) it was 4.58 µg·h/mL; in data set [6] (CD-1, mouse, plasma, po, 350 mg/kg, plasma, after 350 mg/kg S-licarbazepine oral, CD-1 mice, read-out: AUC0-t), 187 µg·h/mL. Further, the Cmax in data set [4] (mouse, brain, after 350 mg/kg S-licarbazepine oral, CD-1 mice, read-out: Cmax) was 12300 ng/mL; in data set [6] (CD-1, mouse, plasma, po, 350 mg/kg, plasma, after 350 mg/kg R-licarbazepine oral, CD-1 mice, read-out: Cmax), 1020 ng/mL; in [6] (CD-1, mouse, plasma, po, 350 mg/kg, plasma, after 350 mg/kg S-licarbazepine oral, CD-1 mice, read-out: Cmax), 41300 ng/mL. The MRT in [4] (mouse, brain, after 350 mg/kg S-licarbazepine oral, CD-1 mice, read-out: MRT) is 7.84 h; in data set [6] (CD-1, mouse, oral, 350 mg/kg, plasma, approximate range stated for both enantiomers, read-out: mean residence time (MRT)) it was 10 to 12 h; in data set [6] (mouse, plasma, after 350 mg/kg S-licarbazepine oral, CD-1 mice, read-out: MRT), 11.7 h. Besides, the tmax amounted to 1 h in data set [4] (mouse, brain, after 350 mg/kg S-licarbazepine oral, CD-1 mice, read-out: tmax) and 0.25 h in data set [6] (mouse, plasma, after 350 mg/kg S-licarbazepine oral, CD-1 mice, read-out: tmax). In addition, the half-life was 4.87 h in [4] (mouse, brain, after 350 mg/kg S-licarbazepine oral, CD-1 mice, read-out: t½ (converted)); approximately 8 h in [6] (CD-1, mouse, oral, 350 mg/kg, plasma, approximate value stated for both enantiomers, read-out: elimination half-life (t1/2) (converted)); 7.93 h in data set [6] (mouse, plasma, after 350 mg/kg S-licarbazepine oral, CD-1 mice, read-out: t½ (converted)). At P-glycoprotein (P-gp), the “substrate for P-gp” value was “not a substrate”. Besides, the “effect of verapamil on brain/plasma ratio” value at P-glycoprotein (P-gp) was “failed to affect”. The “substrate for MRP” value in data set [5] is “not a substrate”. For the same compound, the “effect of probenecid on brain/plasma ratio” value in data set [5] (probenecid 100 mg/kg 30 min before 100 mg/kg intraperitoneally, FIG. 2) is given as “failed to affect”. The “amount detectable in plasma” value in [6] (S-licarbazepine in plasma after administration of R-licarbazepine) is “small amounts”. Further, in [6] (oral, CD-1 mice), the “absorption after oral administration” value is “rapidly absorbed”.
On to `NC(=O)N1c2ccccc2C=Cc2ccccc21` [carbamazepine], for which the “category of P-gp or MRP substrates” value with P-gp or MRP is listed as “P-gp or MRP substrates”.
Regarding `CC(=O)O[C@H]1Cc2ccccc2N(C(N)=O)c2ccccc21` [eslicarbazepine acetate, (S)-(−)-10-acetoxy-10,11-dihydro-5H-dibenz/b,f/azepine-5-carboxamide], at P-glycoprotein (P-gp) (setting [11]), the “effect of verapamil on S-licarbazepine brain/plasma ratio after eslicarbazepine acetate” value is on record as “failed to affect”. Also, the “effect of probenecid on S-licarbazepine brain/plasma ratio after eslicarbazepine acetate” value in data set [5] (setting [11]) was “failed to affect”. Further, the “patients that became seizure free” value in data set [7] (1 month after initiation of therapy) is reported as “approximately 25%”. Besides, in [7] (administered once-daily), the “efficacy in partial epilepsy refractory patients” value was “very efficacious”.
Regarding `NC(=O)OCC(COC(N)=O)c1ccccc1` [felbamate], in the data set on P-gp or MRP, the “category of P-gp or MRP substrates” value is reported as “P-gp or MRP substrates”.
For `NC(=O)N1c2ccccc2CC(=O)c2ccccc21` [oxcarbazepine], the “category of P-gp or MRP substrates” value with P-gp or MRP is on record as “P-gp or MRP substrates”.
Consider `CCC1(c2ccccc2)C(=O)NC(=O)NC1=O` [phenobarbital], for which the “category of P-gp or MRP substrates” value with P-gp or MRP was “P-gp or MRP substrates”.
Regarding `O=C1NC(=O)C(c2ccccc2)(c2ccccc2)N1` [phenytoin], in the data set with P-gp or MRP, the “category of P-gp or MRP substrates” value was “P-gp or MRP substrates”.
